The record followed here is patent US20210346663A1, “METHODS FOR IMPROVING DRUG EFFICACY” (Nuvaira, Inc., priority 2012, published 2021).

This assay in a line: Pulmonary function after vagus nerve disruption followed by drug administration in patients with obstructive lung disease. Conditions: drug given after nerve activity-modulating treatment. It counts as in vivo. An excerpt:
For two treatments with similar mechanisms of action (e.g., vagus nerve disruption that eliminates or reduces acetylcholine production and pharmacological inhibition of acetylcholine production or release), one would expect that the combination of such treatments would result in less of an improvement than the combination of two treatments with different/complementary mechanisms of action.

On to `CC(C)[N+]1(C)[C@@H]2CC[C@H]1C[C@@H](OC(=O)C(CO)c1ccccc1)C2` (stereo partly shown) [ipratropium bromide], for which the “effect on lung functions of administration after vagus nerve disruption” value is reported as “additive effect”.
